These are literature values, as cited in paper PMC12504763, “Antiproliferation, 3D-multicellular spheroid and VEGFR-2 inhibitory properties of spiroindolin-2-ones with phosphonate function” (Scientific Reports, 2025).

In this series the test system is A549 (lung) cancer cell line. Set-up: method as in Reference 45. Particulars: standard drug doxorubicin; ref Reference 45; cited from earlier work.

One may read the IC50 as the point on the concentration scale where inhibition reaches its midpoint. For `COc1cccc2c1C(=O)c1c(O)c3c(c(O)c1C2=O)C[C@@](O)(C(=O)CO)C[C@@H]3O[C@H]1C[C@H](N)[C@H](O)[C@H](C)O1` [Doxorubicin], the IC50 is 5.93 µM.
